Active and inactive are the calls of the source.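 How the source made its calls: active means fitted curve reaches a 40% rise in fluorescent cells at or below the top valid dose; inactive means opposite-direction effect, or the rest.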
System: not listed separately
Assay: compound fluorescence in GFP channel, mTEFS cells – imaging, mTEFS fibroblasts, cherry-pick, artefact control for X-chromosome reactivation project, dose response (AID 743396);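 on % fluorescent cells increase: raw share of Hoechst-counted cells scored GFP positive without control normalization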
Settings: mTEFS fibroblasts autofluorescence, GFP-channel imaging, 3 days; at 19.5 µM (top of the series); cells pretreated with 5-aza-dC

Structure (SMILES)	% fluorescent cells increase
Cc1ccnc(NS(=O)(=O)c2ccc3c(c2)CCO3)c1	0.175% (inactive)
CC(=O)c1ccc2c(c1)OCCOCCOCCOCCOCCO2	0.551% (inactive)
Cc1cc(=O)[nH]c(N/N=C/c2cc(C)n(CC(F)(F)F)c2C)n1	0% (inactive)
CN(c1ccccc1)S(=O)(=O)c1ccc(C(=O)NCC(c2ccco2)N2CCCCC2)cc1 (centres undefined)	6.89% (inactive)
CCOC(=O)C1=c2/c(=C/c3ccncc3)c(N)c(C(=O)OC)n2C(=O)C(c2ccncc2)S1 (centres undefined)	0.042% (inactive)
CNc1ncnc(Sc2ccc(Cl)cc2)c1[N+](=O)[O-]	0% (inactive)
CC(C)OC(=O)/C(=C\c1cccnc1)NC(=O)c1ccccc1	0.013% (inactive)
COc1ccc(-c2ccc(C#N)c(SCC(=O)NCc3ccco3)n2)cc1OC	0% (inactive)
CCCCNc1nc2c(-c3ccccc3)nnn2c2ccccc12	0.006% (inactive)
CCc1ccc(NS(=O)(=O)c2ccc3[nH]cc(C(=O)N4CCc5ccccc54)c(=O)c3c2)cc1	0% (inactive)
CCOC(=O)C1CCN(c2c(NCc3ccc(C(=O)NC4CCCC4)cc3)c(=O)c2=O)CC1	0% (inactive)
Cn1c2ccccc2c2cnn(CC(=O)Nc3ccccc3Br)c(=O)c21	-0.007% (inactive)
COc1ccc2c3c([nH]c2c1)[C@@H](CO)N(Cc1cc(F)ccc1F)CC31CCN(C(C)=O)CC1	0% (inactive)
CC(=O)Nc1sc(C)c(C)c1C(=O)OCC(=O)Nc1cc(S(C)(=O)=O)ccc1Cl	0.274% (inactive)
COc1ccc(OC)c(/C=C/c2ccc3cccc(O)c3n2)c1	-0.004% (inactive)
O=C(CCN1CCCCC1)NCC[C@@H]1CC[C@H](NC(=O)C2CCCCC2)[C@H](CO)O1	0.045% (inactive)

Structure (SMILES)	% fluorescent cells increase
Cc1c(/C=N\NC(=O)c2cc3ccccc3o2)c2ccccc2n1C	0% (inactive)
Cc1nnc(SCc2cc(=O)oc3ccc4ccccc4c23)n1Cc1ccccc1	0% (inactive)
Cc1cc(=O)[nH]c(N/N=C/c2cc(C)n(-c3ccccc3)c2C)n1	0% (inactive)
CCOC(=O)c1ccc(NC(=O)C2CCC(CNc3c(N4CCOCC4)c(=O)c3=O)CC2)cc1 (centres undefined)	0.105% (inactive)
COCCNC(=O)CSc1nc2scc(-c3ccccc3)c2c(=O)[nH]1	0.106% (inactive)
CSc1ccc(CN2C(=O)NC3(CCCCCCC3)C2=O)cc1	-0.004% (inactive)
COc1ccccc1N1CCN(C(=O)CN2C(=O)c3cccc4cccc(c34)C2=O)CC1	0.023% (inactive)
CC(C)CC(=O)Nc1c2c(nn1-c1ccc(F)cc1)CSC2	0.007% (inactive)
O=C(CCl)N=c1sccn1Cc1ccc(Cl)cc1Cl	0% (inactive)
CC(C)C(NC(=O)c1ccc(F)cc1)C(=O)NCC1CCCO1 (centres undefined)	0.01% (inactive)
O=C(COC(=O)COc1cccc(C(F)(F)F)c1)NC1CCS(=O)(=O)C1 (centres undefined)	0.015% (inactive)
CNC(=O)C[C@H]1C(=O)N(c2ccccc2)C[C@@H]1C	0% (inactive)
Cc1cccc(OCC(=O)N(C)c2c(N)n(Cc3ccccc3)c(=O)[nH]c2=O)c1C	0.02% (inactive)
CCOC(=O)c1cnc(-c2ccc(C(F)(F)F)cn2)[nH]c1=O	11.4% (inactive)
COc1ccc(NC(=O)C(=O)NCCC2CCCCN2S(=O)(=O)c2cccs2)cc1 (centres undefined)	2.33% (inactive)
CCOC(=O)Cc1csc(NC(=O)Nc2ccc(F)cc2)n1	0% (inactive)

System: mTEFS fibroblasts autofluorescence, GFP-channel imaging, 3 days
Assay: as above
Settings: not given

Structure (SMILES)	AC40
CC1=CC(=Cc2sc3ccccc3[n+]2C)C=C(C)O1	> 19.5 µM (inactive)

Same assay, conditions: cells pretreated with 5-aza-dC

Structure (SMILES)	AC40
CC1=NN(c2nc(N)nc(/C(C#N)=C/c3ccc([N+](=O)[O-])o3)n2)C(C)(C)C1	4.78 µM
C[C@@H]1CCCCO[C@H](CN(C)C(=O)Nc2ccc(C(F)(F)F)cc2)[C@H](C)CN([C@H](C)CO)C(=O)c2cc(NC(=O)CCC(F)(F)F)ccc2O1	17.4 µM
Cc1ccc2cc3c(N)c(C(=O)Nc4c(C)[nH]c(=O)[nH]c4=O)sc3nc2c1	> 19.5 µM (inactive)
Cc1ccc(NC(=O)/C=C/c2ccc([N+](=O)[O-])s2)cc1	4.44 µM
Cc1n[nH]c(=S)n1/N=C/c1ccc(-c2ccc(Cl)cc2)o1	> 19.5 µM (inactive)
N#C/C(=C/c1ccc(N2CCCCC2)o1)C(=O)Nc1ccc2ccccc2c1	1.53 µM
Cc1ccc(C(=O)N/C(=C/c2ccc(-c3ccc([N+](=O)[O-])cc3)o2)C(=O)NCCCN(C)C)cc1	5.7 µM
CCN1/C(=C/C=C/c2oc3ccc(-c4ccccc4)cc3[n+]2CC)Oc2ccc(-c3ccccc3)cc21	0.00627 µM
CCOC(=O)C1=C(O)/C(=C/c2cc(OC)c(O)c(OC)c2)SC1=Nc1ccc(OC)cc1	> 19.5 µM (inactive)
N#C/C(=C/c1ccc(-c2ccccc2)o1)c1nc(-c2cccs2)cs1	7.35 µM
Cc1[nH]c2ccccc2c1/C=N/Nc1ccc([N+](=O)[O-])cc1	12.2 µM
Cc1ccccc1-c1ccc(C2[C@@H]3CN(Cc4cocn4)C[C@H]2N3)cc1 (some centres undefined)	> 2.35 µM (inactive)
CCCN1C(=O)S/C(=C\c2ccc(N3CCOCC3)o2)C1=O	> 19.5 µM (inactive)
CCc1cccc2cc3c(N)c(C(=O)Nc4ccc(S(=O)(=O)N5CCCC5)cc4)sc3nc12	7.09 µM
Cc1c2c(cc3c1[nH]c1ccccc13)C=NCC2	15.8 µM
Cc1nonc1NC(=O)CSc1nc2c(C)cccc2cc1C#N	9.02 µM
Cc1cc(C)cc(NC(=O)/C=C/c2ccc([N+](=O)[O-])s2)c1	9.04 µM
Cc1n[nH]c(=S)n(/N=C/c2cccc([N+](=O)[O-])c2)c1=O	> 19.5 µM (inactive)
COc1ccc(N2CCN(C(=O)c3cc4c(s3)-c3ccccc3OC4)CC2)cc1	> 19.5 µM (inactive)
CCN1/C(=C/c2ccc3cc(C)ccc3[n+]2CC)Sc2cc(C)ccc21	6.21 µM
CC(=O)Nc1sc(/C(C#N)=C/c2ccc(Cl)c(Cl)c2)nc1-c1ccc(C)cc1	3.55 µM

Structure (SMILES)	AC40
Cc1cc(C)c2cc3c(N)c(C(=O)Nc4c(C)[nH]c(=O)[nH]c4=O)sc3nc2c1	> 19.5 µM (inactive)
COc1ccc(N(C)S(=O)(=O)c2cccc(C(=O)NCC(c3cccs3)N(C)C)c2)cc1 (centres undefined)	13.9 µM
C/C(=N\Nc1ncnc2sc(C)c(C)c12)c1ccccn1	1.55 µM
COc1ccc(C(=O)Nc2c(F)c(F)c(F)c(F)c2F)cc1OC	> 19.5 µM (inactive)
CC(=O)[C@@]1(O)Cc2c(O)c3c(c(O)c2[C@H](O[C@H]2C[C@H](N)[C@H](O)[C@H](C)O2)C1)C(=O)c1ccccc1C3=O	> 2.1 µM (inactive)
COc1cc2c3nnc(-c4ccc(F)cc4)c-3cn(Cc3cccc(C)c3)c2cc1OC	3.63 µM
CCN1C(=O)[C@@H]2Cc3c([nH]c4ccccc34)C(c3cc(OC)c(OC)c(OC)c3)N2C1=S (some centres undefined)	> 19.5 µM (inactive)
O=S(=O)(Nc1cc2nc3ccccc3nc2n1Cc1ccccc1)c1ccc(Cl)cc1	> 19.5 µM (inactive)
Cc1cc2oc3ccc(NCCCn4ccnc4)cc3c(=O)c2cc1C	19.2 µM
Cc1nnc(N2C(=O)c3cccc4c([N+](=O)[O-])ccc(c34)C2=O)s1	> 19.5 µM (inactive)
O=c1oc2cc(O)ccc2cc1-c1nc2c(s1)CCc1ccccc1-2	4.39 µM
COc1ccc(CCNC(=O)c2ccc([N+](=O)[O-])cc2)cc1	18.8 µM
C=CCN1C(=O)[C@@H]2Cc3c([nH]c4ccccc34)C(c3cc(OC)c(OC)c(OC)c3)N2C1=S (some centres undefined)	15.5 µM
O=[N+]([O-])c1ccc(/C=C/C2=NN(c3ccccc3)C(c3ccco3)C2)cc1 (centres undefined)	3.37 µM
Cc1ccc2c(c1)c(/C=C/c1cc[n+](C)cc1)c(C)n2C	10.1 µM
COc1ccc2c(n1)Sc1nc3ccccc3nc1N2	12.5 µM
CCN(CC)c1ccc(/C=C(/C#N)C(=O)NCc2ccccc2)o1	5.55 µM
CC(O)CN(CC(C)O)c1ccc2c(c1)Cc1cc([N+](=O)[O-])ccc1-2 (centres undefined)	> 19.5 µM (inactive)
CC1CN(C(=O)/C=C/c2ccc([N+](=O)[O-])s2)CC(C)O1 (centres undefined)	10.6 µM
CCN1/C(=C\c2ccc3cc(C)ccc3[n+]2CC)Sc2cc(C)c(C)cc21	15.7 µM
N#C/C(=C/c1ccc(N2CCCCC2)o1)C(=O)NCCc1c[nH]c2ccccc12	5.61 µM

Structure (SMILES)	AC40
Cc1cccc2cc3c(N)c(C(=O)N4CCCc5ccccc54)sc3nc12	10.2 µM
Nc1[nH]c2cc([N+](=O)[O-])ccc2c1-c1ccccn1	8.95 µM
N#Cc1c(-c2ccccc2F)cc(C2CC2)nc1SCC(=O)c1cccs1	9.82 µM
CCC(CO)[n+]1c(C)cc(/C=C2\Sc3ccccc3N2Cc2ccccc2)cc1C (centres undefined)	7.28 µM
CN(C)c1ccc(/C=C(/C#N)C(=O)NCc2ccccc2)o1	14.7 µM
CCN1CCc2c(sc(NC(=O)c3ccc4ccccc4c3)c2C(N)=O)C1	3.45 µM
Cc1ccc(Cl)c2c(N=Nc3ccccc3)c(O)[nH]c12	> 19.5 µM (inactive)
O=CNc1ccc2c3c(cccc13)-c1ccccc1-2	8.57 µM
N#C/C(=C\c1ccc([N+](=O)[O-])o1)c1nc2ccccc2[nH]1	> 19.5 µM (inactive)
O=C1c2ccccc2C(=O)C1c1ccccc1	> 19.5 µM (inactive)
COc1cc2c3nnc(-c4ccc(F)cc4)c-3cn(Cc3ccccc3F)c2cc1OC	2.46 µM
COc1ccc(C(=O)c2sc3nc(C)cc(-c4cccs4)c3c2N)cc1OC	16.3 µM
CC(C)N1CCc2c(sc(NC(=O)c3ccc4ccccc4c3)c2C(N)=O)C1	10.6 µM
O=c1[nH]c(=O)n([C@H]2C[C@H](O)[C@@H](CO)O2)cc1C(F)(F)F	> 19.5 µM (inactive)
Nc1c(C(=O)c2ccccc2)sc2nsc(SCCN3CCCC3)c12	10.5 µM
Nc1ccc2c3c(cccc13)-c1ccccc1-2	1.49 µM
CCOC(=O)Cn1c(=O)c(-c2cc(Br)ccc2N)nc2ccccc21	> 19.5 µM (inactive)
CCN1CCc2c(sc(NC(=O)Nc3ccc(Cl)c(Cl)c3)c2C(N)=O)C1	0.558 µM
O=[N+]([O-])c1ccc(N/N=C/c2sc(N3CCOCC3)nc2-c2ccccc2)c(S(=O)(=O)Nc2ccc(Cl)cc2)c1	> 6.8 µM (inactive)
